Data on two substances can be found in US20120095739A1, “METHOD FOR DETERMINING THE EFFICACY OF A COMBINATION THERAPY” (priority 2009, published 2012).

The assay deals with HIV-1. The conditions noted are these: double robust estimation; for Weight (drug weight, PI): difference in viral load response (log scale) vs lopinavir after 8 weeks of stable treatment. From the text: Therefore, statistical models were applied to handle these differences. […] E.g.

Take lopinavir [LPV/r]: the “Weight (drug weight, PI)” value is reported as 0.

Regarding atazanavir [ATV/r], the “Weight (drug weight, PI)” value is −0.02. Further, for the setting “after 8 weeks of stable treatment”, the “difference in viral load change vs patients taking lopinavir” value is on record as −0.02 log viral load.
